Values of other authors in US5593970A, “Heterocyclic anthracycline analogs” (priority 1994, dated 1997).

How the values were obtained:
tumor = details: cited from earlier work
bacteria and fungi = details: cited from earlier work

Row | SMILES | antitumor activity (tumor) | antibacterial and antifungal activity (bacteria and fungi)
1 | CC(=O)N1Cc2c(O)c3c(c(O)c2C(O[C@H]2C[C@H](NC(=O)C(F)(F)F)[C@H](O)[C@H](C)O2)C1)C(=O)c1ccccc1C3=O (stereo partly shown) [N-(trifluoroacetyl)-4-demethoxy-9-azadaunorubicin] | no antitumor activity | –
2 | C[C@@H]1O[C@@H](CC(=O)O)CC2=C1C(=O)c1c(O)cccc1C2=O [nanaomycin A] | – | potent antibacterial as well as antifungal activity
3 | CC1OC2CC(=O)OC2C2=C1C(=O)c1c(O)c3c(c(O)c1C2=O)C1CC(O)C3(O)C(C)O1 (stereo not shown) [Granaticin] | antitumor activity | –
4 | CC1OC2OC(=O)OC2C2=C1C(=O)c1c(O)cccc1C2=O (stereo not shown) [kalafungin] | – | potent antibacterial as well as antifungal activity
